Numbered stars: 1 amine (or outer) side, 2 acyl side, 3 side chain; on linkers, the order of the positions; unused ones are H or OH. Bridge positions count the residues as written; N and C are the ends. Square brackets hold non-standard residues; d marks the D form. Peptide text beside a SMILES is read from it. * marks the point of attachment. NMeAbu(3,3-F2-piperidino) = CN[C@@H](CCN1CCCC(F)(F)C1)C(=O)O; hPhe(3-Cl-4-CF3) = N[C@@H](CCc1ccc(C(F)(F)F)c(Cl)c1)C(=O)O; Phe(3-CF3) = N[C@@H](Cc1cccc(C(F)(F)F)c1)C(=O)O; NMePhe(4-Cl) = CN[C@@H](Cc1ccc(Cl)cc1)C(=O)O; NMePhe(2-CN) = CN[C@@H](Cc1ccccc1C#N)C(=O)O; NMePhe(4-Me) = CN[C@@H](Cc1ccc(C)cc1)C(=O)O; NMedβ3hAla = C[C@H](CC(=O)[*:2])N(C)[*:1]; NMeGly(cPent) = CN[C@H](C(=O)O)C1CCCC1; Phe(3-I) = N[C@@H](Cc1cccc(I)c1)C(=O)O; X67 = O=C([C@@H]1CCC[C@H]1N[*:1])[*:2]; NMeCha = CN[C@@H](CC1CCCCC1)C(=O)O; NMeI = CC[C@H](C)[C@H](NC)C(=O)O; NMeD = CN[C@@H](CC(=O)O)C(=O)O; NMeL = CN[C@@H](CC(C)C)C(=O)O; NMeV = CN[C@H](C(=O)O)C(C)C; Pip = O=C(O)[C@@H]1CCCCN1; NMeA = CN[C@@H](C)C(=O)O; NMeAib = CNC(C)(C)C(=O)O; Nle = CCCC[C@H](N)C(=O)O; Piperidide = C1CCN(*)CC1; dNMeA = CN[C@H](C)C(=O)O; Ac5c = NC1(C(=O)O)CCCC1; Aze = O=C(O)[C@@H]1CCN1; Sar = CNCC(=O)O
system: Human pancreatic cancer cell line AsPC-1 (G12D mutation Kras); assay: AsPC-1 cell growth inhibition (AsPC-1 CGI); type: cell-based; conditions: read-out: AsPC-1 cell growth inhibition, 50% growth inhibitory concentration (IC50 value); 96 hours, CellTiter-Glo, values classified in ranges
Protocol: Test compounds were serially dilated with dimethyl sulfoxide, and 200 nL was then dispensed to a U-bottom 96-well plate using Labcyte Echo. […] The cell suspension was dispensed to a. plate containing a test compound at 100 μL per well and incubated at 37° C. in a 5% carbon dioxide gas incubator. 96 hours later, 80 μL of CellTiter-Glo (Promega) was added to each well and fluorescence was measured.

Question: How did the IC50 turn out when `CC[C@H](C)[C@@H]1NC(=O)[C@H](CC(C)C)N(C)C(=O)[C@@H]2CCC[C@H]2NC(=O)[C@H](C(C)C)N(C)C(=O)C2(CCCC2)NC(=O)[C@@H]2CCCN2C(=O)[C@H](CCc2ccc(C(F)(F)F)c(Cl)c2)NC(=O)CN(C)C(=O)[C@H](CC2CCCCC2)N(C)C(=O)CN(C)C(=O)CN(C)C1=O` [Compound 347] (cyclo([Ac5c][NMeV][X67][NMeL]I[Sar][Sar][NMeCha][Sar][hPhe(3-Cl-4-CF3)]P)) was run?
Answer: > 500 nM

Question: How did the IC50 turn out when `CCCC[C@@H]1NC(=O)[C@H](CCc2ccc(C(F)(F)F)c(Cl)c2)NC(=O)CN(C)C(=O)[C@H](Cc2ccc(Cl)cc2)N(C)C(=O)[C@@H]2CCN2C(=O)CN(C)C(=O)[C@H]([C@@H](C)CC)NC(=O)[C@@H]2CCCCN2C(=O)C[C@@H](C(=O)N2CCCCC2)N(C)C(=O)[C@H](CC(C)C)NC(=O)C(C)(C)N(C)C1=O` [Compound 352] ([Pip]I[Sar][Aze][NMePhe(4-Cl)][Sar][hPhe(3-Cl-4-CF3)][Nle][NMeAib]L[NMeD]-Piperidide; lactam N-11) was run?
Answer: > 500 nM

Question: How did the IC50 turn out when `CC[C@H](C)[C@@H]1NC(=O)[C@H](CC(C)C)N(C)C(=O)C[C@@H](C)N(C)C(=O)[C@H](C(C)C)N(C)C(=O)C2(CCCC2)NC(=O)[C@@H]2CCCN2C(=O)[C@H](CCc2ccc(C(F)(F)F)c(Cl)c2)NC(=O)CN(C)C(=O)[C@H](Cc2ccccc2C#N)N(C)C(=O)CN(C)C(=O)CN(C)C1=O` [Compound 357] (cyclo([Ac5c][NMeV][NMedβ3hAla][NMeL]I[Sar][Sar][NMePhe(2-CN)][Sar][hPhe(3-Cl-4-CF3)]P)) was run?
Answer: > 500 nM

Question: `CC[C@H](C)[C@@H]1NC(=O)[C@H](CC(C)C)N(C)C(=O)C[C@@H](C(=O)N(C)C)N(C)C(=O)[C@H](C2CCCC2)N(C)C(=O)C2(CCCC2)NC(=O)[C@@H]2CCCN2C(=O)[C@H](CCc2ccc(C(F)(F)F)c(Cl)c2)NC(=O)CN(C)C(=O)[C@H](Cc2ccc(C)cc2)N(C)C(=O)[C@@H]2CCN2C(=O)[C@H](C)NC1=O` [Compound 363] ([NMeL]IA[Aze][NMePhe(4-Me)][Sar][hPhe(3-Cl-4-CF3)]P[Ac5c][NMeGly(cPent)][NMeD]-NMe2; lactam N-11) was tested. Which IC50 did it give?
Answer: ≤ 20 nM

Question: For `CC[C@H](C)[C@@H]1NC(=O)[C@H](CC(C)C)NC(=O)C[C@@H](C(=O)N2CCCCC2)N(C)C(=O)[C@H](C(C)C)N(C)C(=O)C2(CCCC2)NC(=O)[C@@H]2CCCN2C(=O)[C@H](CCc2ccc(C(F)(F)F)c(Cl)c2)NC(=O)CN(C)C(=O)[C@H](CC2CCCCC2)N(C)C(=O)[C@@H]2CCN2C(=O)[C@H](C)N(C)C1=O` [Compound 368] (LI[NMeA][Aze][NMeCha][Sar][hPhe(3-Cl-4-CF3)]P[Ac5c][NMeV][NMeD]-Piperidide; lactam N-11), which IC50 is on record?
Answer: > 500 nM

Question: Which IC50 does the source give for `CC[C@H](C)[C@@H]1NC(=O)[C@H](CC(C)C)N(C)C(=O)C[C@@H](C(=O)N2CCCCC2)N(C)C(=O)[C@H](CC(C)C)NC(=O)C(C)(C)N(C)C(=O)[C@H](Cc2cccc(C(F)(F)F)c2)NC(=O)[C@H](Cc2cccc(I)c2)NC(=O)CN(C)C(=O)[C@H](Cc2ccc(C)cc2)N(C)C(=O)CN(C)C(=O)CN(C)C1=O` [Compound 376] ([NMeL]I[Sar][Sar][NMePhe(4-Me)][Sar][Phe(3-I)][Phe(3-CF3)][NMeAib]L[NMeD]-Piperidide; lactam N-11) here?
Answer: > 500 nM

Question: `CC[C@H](C)[C@@H]1NC(=O)[C@H](CC(C)C)N(C)C(=O)C[C@@H](C(=O)N(C)C)N(C)C(=O)[C@H]([C@@H](C)CC)N(C)C(=O)C2(CCCC2)NC(=O)[C@H](C)N(C)C(=O)[C@H](CCc2ccc(C(F)(F)F)c(Cl)c2)NC(=O)CN(C)C(=O)[C@H](Cc2ccc(C)cc2)N(C)C(=O)[C@@H]2CCN2C(=O)[C@H](C)N(C)C1=O` [Compound 378] ([NMeL]I[NMeA][Aze][NMePhe(4-Me)][Sar][hPhe(3-Cl-4-CF3)][NMeA][Ac5c][NMeI][NMeD]-NMe2; lactam N-11) was tested. Which IC50 did it give?
Answer: ≤ 20 nM

Question: With `CC[C@H](C)[C@@H]1NC(=O)[C@H](CC(C)C)N(C)C(=O)C[C@@H](C(=O)N(C)C)N(C)C(=O)[C@H]([C@@H](C)CC)N(C)C(=O)[C@H](C(C)C)NC(=O)[C@H](CCN2CCCC(F)(F)C2)N(C)C(=O)[C@H](CCc2ccc(C(F)(F)F)c(Cl)c2)NC(=O)CN(C)C(=O)[C@H](Cc2ccc(C)cc2)N(C)C(=O)[C@@H]2CCN2C(=O)[C@H](C)N(C)C1=O` [Compound 379] ([NMeL]I[NMeA][Aze][NMePhe(4-Me)][Sar][hPhe(3-Cl-4-CF3)][NMeAbu(3,3-F2-piperidino)]V[NMeI][NMeD]-NMe2; lactam N-11) as the compound, how does the IC50 read?
Answer: > 500 nM

Question: Which IC50 does the source give for `CC[C@H](C)[C@@H]1NC(=O)[C@H](C)N(C)C(=O)C[C@@H](C(=O)N2CCCCC2)N(C)C(=O)[C@H](C(C)C)N(C)C(=O)C2(CCCC2)NC(=O)[C@@H]2CCCN2C(=O)[C@H](CCc2ccc(C(F)(F)F)c(Cl)c2)NC(=O)[C@@H](C)N(C)C(=O)[C@H](CC2CCCCC2)N(C)C(=O)CN(C)C(=O)CN(C)C1=O` [Compound 380] ([NMeA]I[Sar][Sar][NMeCha][dNMeA][hPhe(3-Cl-4-CF3)]P[Ac5c][NMeV][NMeD]-Piperidide; lactam N-11) here?
Answer: > 500 nM
